{"source": "patent US20230398115A1", "about": "“MDM2 INHIBITORS AND COMBINATIONS THEREOF” (Novartis AG, priority 2015, published 2023)", "key": {"[1]": {"system": "HCT-116 xenografts", "assay": "HCT-116 xenograft in nude mice, tumor volume", "assay_type": "in vivo", "conditions": "for effect of sequential addition on tumor volume: day 19", "method": "All animal experiments were done in strict adherence to the Swiss law for animal protection. Female Crl:NU(NCr)-Foxn1nu mice were purchased from Charles River Laboratories International Inc (Germany) and kept in a pathogen-controlled environment. Subcutaneous tumors of HCT-116 (KRAS mutant, PIK3CA mutant, p53 wild-type) were induced by concentrating 3 million cells in 100 μl of PBS and injecting them in the right flank of nude mice. The mice were randomly grouped, and treatment was started when the tumor size reached 50 to 250 mm3. Each cohort included 8 mice. Tumor sizes were monitored three times weekly, and volumes were calculated with the following formula: (mm3)=length×width2×0.5.\nCOMPOUND A was dissolved in 0.5% hydroxypropyl methylcellulose, COMPOUND B was dissolved in 1% carboxymethylcellulose containing 0.5% Tween-80% in distilled water (pH7.6-8.0), and COMPOUND C was dissolved in Microemulsion pre-concentrate 5. All drugs were dosed orally using 5-10 ml/kg. COMPOUND A was administered three times a week (3qw) at 100 mg/kg. COMPOUND B and COMPOUND C were administered daily (q24 h) at 0.3 and 100 mg/kg, respectively. The combination dosing schedule and dosage were the same as the single reagents.\nSix treatment cohorts (G1-G6) were tested: • G1: vehicle (DMSO) • G2: COMPOUND C • G3: COMPOUND A=>after 9 days treatment COMPOUND C was added • G4: COMPOUND B=>after 9 days treatment COMPOUND C was added • G5: COMPOUND A+COMPOUND B=>after 9 days treatment COMPOUND C was added • G6: COMPOUND A+COMPOUND B+COMPOUND C\nFor each tumor at each time-point the size was normalized to the size before the start of the treatment to obtain the “% Change tumor volume” (FIG. 17-18, y-axis). For FIG. 17 at each time point the mean size of all tumors per cohort was calculated, and the error of the size using the standard error of the mean (SEM). For FIG. 18 p-values were calculated using a one-tailed t test."}, "[2]": {"system": "GP2d", "assay": "Cell proliferation, cell count by microscopy, HSA synergy (Examples 2-9)", "assay_type": "cell-based", "conditions": "Example 2, single agent, 72 h, cell count relative to DMSO", "method": "(§1) After 24 h one 384-well plate per cell line was prepared for cell counting by microscopy (see below) without receiving treatment (=‘baseline’). The other cell plates were treated by transferring 25 nl of the 2000× compound from drug master plates using an ATS acoustic liquid dispenser (ECD Biosystems) and resulting in a final 1× concentration. COMPOUND A was used over a final concentration range of 13 nM-10 µM, COMPOUND B was used over a final concentration range of 13 nM-10 uM, and COMPOUND C was used over a final concentration range of 0.4 nM-0.3 µM (7 1:3 dilution steps). In order to assess the effect of the triple combination all individual COMPOUNDS (A, B, C), all three pair wise combinations (A+B, A+C, B+C), and the triple combination (A+B+C) were tested in the same experiment. Pair wise combinations and the triple combination were tested at a fixed ratio of 1:1 (for drug pairs) and 1:1:1 (for the drug triple) at each dilution resulting in 7 combination conditions per treatment. […] After compound addition 50 nl of 2 mM CellEvent Caspase-3/7 Green Detection Reagent (ThermoFisher, Catalog number C10423) were added to one of the three replicates using the HP D300 Digital Dispenser (Tecan). Caspase 3/7 induction was measured as a proxy for apoptosis induced by the treatments. Cells were treated for 72 h to 96 h depending on their doubling time (Table 4), and Caspase 3/7 activation was measured every 24 h by microscopy using an InCell Analyzer 2000 (GE Healthcare) equipped with a 4× objective and FITC excitation/emission filters. At the end of the treatment cells were prepared for cell counting by microscopy. Cells were fixed and permeabilised for 45 minutes in 4% PFA (Electron Microscopy Sciences, Catalog number 15714), 0.12% TX-100 (Electron Microscopy Sciences, Catalog number 22140) in PBS (Boston Bioproducts, Catalog number BM-220). After washing cells three times with PBS their DNA was stained for 30 minutes with Hoechst 33342 (ThermoFisher, Catalog number H3570) at a final concentration of 4 μg/ml. Cells were washed three times with PBS and then plates were heat-sealed using a PlateLoc (Agilent Technologies) with aluminum seals (Agilent Technologies, Catalog number 06644-001) and stored at 4° C. until imaging. All cells per well/treatment were captured in a single image by fluorescence microscopy using an InCell Analyzer 2000 (GE Healthcare) equipped with a 4× objective and DAPI excitation/emission filters.\n(§2) Images were analyzed after adapting previously described methods (Horn, Sandmann et al. 2011) and using the Bioconductor package EBimage in R (Pau, Fuchs et al. 2010). Objects in both channels, DAPI (for Hoechst/DNA) and FITC (for Caspase 3/7), were segmented separately by adaptive thresholding and counted. A threshold for Caspase 3/7 positive objects was defined manually per cell line after comparing negative controls (DMSO) and positive controls (Staurosporine). By analyzing 17 additional object/nuclei features in the DNA channel (shape and intensity features) debris/fragmented nuclei were identified. To this end per cell line the distributions of the additional features between positive controls (Staurosporine) and negative controls (DMSO) were compared manually. Features that could differentiate between the conditions (e.g. a shift in the distribution of a feature measurement comparing DMSO with Staurosporine) where used to define the ‘debris’ population versus the population of ‘viable’ nuclei. The debris counts were subtracted from raw nuclei counts. The resulting nuclei number was used as measure of cell proliferation (‘cell count’).\n(§3) The compound's effect on cell proliferation was calculated from the cell counts of the treatments relative to the cell counts of the negative control (DMSO), in FIG. 9 denoted as ‘Normalized cell count’ (=‘xnorm’) on the y-axis. Synergistic combinations were identified using the highest single agent model (HSA) as null hypothesis (Berenbaum 1989)."}, "[3]": {"system": "LoVo", "assay": "Cell proliferation, cell count by microscopy, HSA synergy (Examples 2-9)", "assay_type": "cell-based", "conditions": "Example 2, single agent, 96 h, cell count relative to DMSO", "method": "as §1, §2, §3"}, "[4]": {"system": "RKO", "assay": "Cell proliferation, cell count by microscopy, HSA synergy (Examples 2-9)", "assay_type": "cell-based", "conditions": "72 h, cell count relative to DMSO", "method": "as §1, §2, §3"}, "[5]": {"system": "HCT-116", "assay": "Cell proliferation, cell count by microscopy, HSA synergy (Examples 2-9)", "assay_type": "cell-based", "conditions": "72 h, cell count relative to DMSO", "method": "as §1, §2, §3"}, "[6]": {"system": "LS-180", "assay": "Cell proliferation, cell count by microscopy, HSA synergy (Examples 2-9)", "assay_type": "cell-based", "conditions": "72 h, cell count relative to DMSO", "method": "as §1, §2, §3"}, "[7]": {"system": "LIM2405", "assay": "Cell proliferation, cell count by microscopy (Example 1)", "assay_type": "cell-based", "conditions": "single agent, 72 h treatment, cell count relative to DMSO", "method": "(§4) To test the effect of the combination of COMPOUND A or COMPOUND B with COMPOUND C on cell proliferation cells were plated in black 384-well microplates with clear bottom (Matrix/Thermo Scientific, Catalog number 4332) in 50 ul media per well at cell densities between 500 and 1250 cells/well (Table 1) and allowed to incubate at 37 degrees, 5% CO2 for 24 h. After 24 h one 384-well plate per cell line was prepared for cell counting by microscopy (see below) without receiving treatment (=‘baseline’). The other cell plates were treated using a HP D300 Digital Dispenser (Tecan) generating 6-point dose response curves with 2.5× dilution steps.\n(§5) COMPOUND A was used over a final concentration range of 51 nM-5 uM, COMPOUND B over a final concentration range of 10 nM-1 uM, and COMPOUND C over a final concentration range of 1 nM-100 nM.\n(§6) For the combinations of COMPOUND A or COMPOUND B with COMPOUND C the single agents were combined at 6 single agent doses generating a dose matrix of 6×6=36 combination treatments. Additionally, negative controls (DMSO=‘vehicle’) and positive controls (Staurosporine=killing cells, 7-point 1:2 dilution series for a dose range of 16 nm-1 uM) were transferred as treatment controls. Cells were treated for 72 h to 96 h depending on their doubling time (Table 1). At the end of the treatment cells were prepared for cell counting by microscopy. Cells were fixed and permeabilised for 45 minutes in 4% PFA (Electron Microscopy Sciences, Catalog number 15714), 0.12% TX-100 (Electron Microscopy Sciences, Catalog number 22140) in PBS (Boston Bioproducts, Catalog number BM-220). After washing cells three times with PBS their DNA was stained for 30 minutes with Hoechst 33342 (ThermoFisher, Catalog number H3570) at a final concentration of 4 μg/ml. Cells were washed three times with PBS and then plates were heat-sealed using a PlateLoc (Agilent Technologies) with aluminum seals (Agilent Technologies, Catalog number 06644-001) and stored at 4° C. until imaging. All cells per well/treatment were captured in a single image by fluorescence microscopy using an InCell Analyzer 2000 (GE Healthcare) equipped with a 4× objective and DAPI excitation/emission filters.\nas §2\n(§7) The compound's effect on cell proliferation was calculated from the cell counts of the treatments relative to the cell counts of the negative control (DMSO), in FIGS. 1 and 2 denoted as ‘Normalized cell count’ on the y-axis."}, "[8]": {"system": "GP2d", "assay": "Cell proliferation, cell count by microscopy (Example 1)", "assay_type": "cell-based", "conditions": "single agent, 72 h treatment, cell count relative to DMSO", "method": "as §4, §5, §6, §2, §7"}, "[9]": {"system": "LoVo", "assay": "Cell proliferation, cell count by microscopy (Example 1)", "assay_type": "cell-based", "conditions": "single agent, 96 h treatment, cell count relative to DMSO", "method": "as §4, §5, §6, §2, §7"}, "[10]": {"system": "SW48", "assay": "Cell proliferation, cell count by microscopy (Example 1)", "assay_type": "cell-based", "conditions": "single agent, 96 h treatment, cell count relative to DMSO", "method": "as §4, §5, §6, §2, §7"}, "[11]": {"system": "RKO", "assay": "Cell proliferation, cell count by microscopy (Example 1)", "assay_type": "cell-based", "conditions": "single agent, 72 h treatment, cell count relative to DMSO", "method": "as §4, §5, §6, §2, §7"}, "[12]": {"system": "COLO-678", "assay": "Cell proliferation, cell count by microscopy (Example 1)", "assay_type": "cell-based", "conditions": "colo678, single agent, 96 h treatment, cell count relative to DMSO", "method": "as §4, §5, §6, §2, §7"}, "[13]": {"system": "LS-180", "assay": "Cell proliferation, cell count by microscopy (Example 1)", "assay_type": "cell-based", "conditions": "ls180, single agent, 72 h treatment, cell count relative to DMSO", "method": "as §4, §5, §6, §2, §7"}}}
{"smiles": "CC1(C)CCC(c2ccc(Cl)cc2)=C(CN2CCN(c3ccc(C(=O)NS(=O)(=O)c4ccc(N[C@H](CCN5CCOCC5)CSc5ccccc5)c(S(=O)(=O)C(F)(F)F)c4)cc3)CC2)C1", "note": "[ABT-263]", "values": [{"measurement": "effect of sequential addition on tumor volume", "setting": "[1]; ABT-263 100 mg/kg q24h added after 9 days to single agent COMPOUND A (G3)", "value": "no additional benefit"}, {"measurement": "effect of sequential addition on tumor volume", "setting": "[1]; ABT-263 100 mg/kg q24h added after 9 days to single agent trametinib (G4)", "value": "stopped tumor progression"}, {"measurement": "effect of sequential addition on tumor volume", "setting": "[1]; ABT-263 100 mg/kg q24h added after 9 days to the combination of COMPOUND A and trametinib (G5)", "value": "marked tumor regressions"}]}
{"smiles": "CC1(C)CCC(c2ccc(Cl)cc2)=C(CN2CCN(c3ccc(C(=O)NS(=O)(=O)c4ccc(N[C@H](CCN5CCOCC5)CSc5ccccc5)c(S(=O)(=O)C(F)(F)F)c4)cc3)CC2)C1", "note": "[COMPOUND C]", "values": [{"measurement": "IC50", "setting": "[2]", "value": "> 10", "unit": "µM"}, {"measurement": "IC50", "setting": "[3]", "value": "> 10", "unit": "µM"}, {"measurement": "IC50", "setting": "[4]; Example 2, single agent", "value": "> 10", "unit": "µM"}, {"measurement": "IC50", "setting": "[4]; Example 3, single agent", "value": "> 10", "unit": "µM"}, {"measurement": "IC50", "setting": "[4]; Example 4, single agent", "value": "> 10", "unit": "µM"}, {"measurement": "IC50", "setting": "[5]; Example 2, single agent", "value": "> 10", "unit": "µM"}, {"measurement": "IC50", "setting": "[5]; Example 3, single agent", "value": "> 10", "unit": "µM"}, {"measurement": "IC50", "setting": "[5]; Example 4, single agent", "value": "> 10", "unit": "µM"}, {"measurement": "IC50", "setting": "[6]; Example 2, single agent", "value": "> 10", "unit": "µM"}, {"measurement": "IC50", "setting": "[6]; Example 3, single agent", "value": "> 10", "unit": "µM"}, {"measurement": "IC50", "setting": "[6]; Example 4, single agent", "value": "> 10", "unit": "µM"}]}
{"smiles": "CC(=O)Nc1cccc(-n2c(=O)n(C3CC3)c(=O)c3c(Nc4ccc(I)cc4F)n(C)c(=O)c(C)c32)c1", "note": "[trametinib, N-(3-{3-cyclopropyl-5-[(2-fluoro-4-iodophenyl)amino]-6,8-dimethyl-2,4,7-trioxo-3,4,6,7-tetrahydropyrido[4,3-d]pyrimidin-1(2H)-yl}phenyl)acetamide]", "values": [{"measurement": "IC75", "setting": "[7]", "value": 0.008}, {"measurement": "IC75", "setting": "[8]", "value": ">0.1"}, {"measurement": "IC75", "setting": "[9]", "value": 0.018}, {"measurement": "IC75", "setting": "[10]", "value": 0.003}, {"measurement": "IC75", "setting": "[11]", "value": ">0.1"}, {"measurement": "IC75", "setting": "[12]", "value": ">0.1"}, {"measurement": "IC75", "setting": "[13]", "value": 0.014}, {"measurement": "tumor response (% change tumor volume)", "setting": "[1]; nude mice, oral, COMPOUND A 100 mg/kg 3qw, trametinib 0.3 mg/kg q24h, ABT-263 100 mg/kg q24h, 9 days of treatment", "value": "progressive disease"}]}
